From patent US12303845B2, “Method for crystallization of active pharmaceutical ingredients” (Nanoform Finland Oyj, priority 2023, dated 2025)

Key:
Format in all cases: physicochemical
[1] = Stability tests of solid material (SEM, XRD, HPLC); details: nanosized ceritinib composition, fresh vs stored at room temperature for one month
Experimental: Solid material was weighted in separate vials (approx. 150 mg of material in each) and transferred to stability chambers. Three conditions were applied: ambient conditions (material in closed vial at RT), 25° C./65% RH and 40° C./75% RH. Material was analyzed at T0 as freshly prepared, T7 ([…]), T14 ([…]) and T30 (30 d) after the initiation of stability studies. SEM, XRD and dissolution/permeability studies were used to evaluate the crystallinity, particle size/morphology and performance of the material.

[2] = SEM of crystallized suspensions and dried products (crystal size grade, particle size); design: key: 5 = nanocrystals; 1 = large crystals
Experimental: SEM images were captured using the Zeiss Sigma 300 VP SEM instruments. Samples were dispersed into water and filtered with 0.1 μm filter. Filters were dried, transferred to SEM sample holders, and coated with a 5 nm thick layer of platinum. Amorphous API nanoparticles (budesonide, ezetimibe, ceritinib, and apalutamide) were added as dry powders to aqueous polymer solutions. The mixtures were either • (i) mixed with a magnetic stirrer and ultrasonicated until API was completely surrounded by water (wetted). The stirring was continued for 16-24 h at ambient temperature or • (ii) blended with a metal spatula and allowed to stay at room temperature for 18-24 h. The suspensions formed were analyzed after 18-24 h. SEM and XRD samples were prepared as described above. Suspension comprising nanosized APIs prepared as shown above were dried in a vacuum desiccator overnight. The solid materials were grounded to produce powders. The powders were analyzed on XRD and SEM. The powders comprising nanosized APIs were used in the stability, permeability, and dissolution tests as described above.

[3] = Crystallization of amorphous nanosized API in aqueous polymer solution, polymorph/crystallinity by XRD
Experimental: XRPD measurements were carried out using the Malvern PANalytical Empyrean X-ray diffractometer equipped with a Cu Kα (1.54 Å) source, MultiCore optics and a solid-state PIXcel3D detector. By using Kapton tape the samples were attached onto aluminum or polycrystalline silicon sample holders. Dried slurries were measured without further sample preparation under Kapton tape and suspensions were filtered, dried, and filters were attached with double sided tape. The samples were measured in the reflection geometry in a spinning measurement stage. The measurement range was 5-40 (°2θ). The step size and time per step values were varied depending on the counts per second obtained.
Determination of crystallization of API nanoparticles was evaluated via kinetic study of suspension. Accordingly, XRD measurement was done for suspension in different time points.
Amorphous API nanoparticles (budesonide, ezetimibe, ceritinib, and apalutamide) were added as dry powders to aqueous polymer solutions. The mixtures were either • (i) mixed with a magnetic stirrer and ultrasonicated until API was completely surrounded by water (wetted). The stirring was continued for 16-24 h at ambient temperature or • (ii) blended with a metal spatula and allowed to stay at room temperature for 18-24 h.
The suspensions formed were analyzed after 18-24 h. SEM and XRD samples were prepared as described above.

[4] = Poloxamer 407 1 wt.-%, SLS 0.2 wt.-%, mAPI 25 mg/g
[5] = Poloxamer 407 1 wt.-%, no SLS, mAPI 25 mg/g
[6] = Poloxamer 407 2.5 wt.-%, SLS 0.2 wt.-%, mAPI 25 mg/g
[7] = Poloxamer 407 2.5 wt.-%, no SLS, mAPI 25 mg/g
[8] = Poloxamer 407 5 wt.-%, SLS 0.2 wt.-%, mAPI 25 mg/g
[9] = Poloxamer 407 5 wt.-%, no SLS, mAPI 25 mg/g
[10] = Poloxamer 407 5 wt.-%, no SLS, mAPI 150 mg/g
[11] = Poloxamer 407 7.5 wt.-%, no SLS, mAPI 150 mg/g
[12] = Poloxamer 407 7.5 wt.-%, no SLS, mAPI 300 mg/g
[13] = Poloxamer 407 10 wt.-%, SLS 0.2 wt.-%, mAPI 25 mg/g
[14] = Poloxamer 407 10 wt.-%, no SLS, mAPI 25 mg/g
[15] = Poloxamer 407 15 wt.-%, SLS 0.2 wt.-%, mAPI 150 mg/g
[16] = Poloxamer 407 15 wt.-%, SLS 0.2 wt.-%, mAPI 300 mg/g
[17] = Poloxamer 407 15 wt.-%, no SLS, mAPI 150 mg/g
[18] = Poloxamer 407 15 wt.-%, no SLS, mAPI 300 mg/g
[19] = Poloxamer 407 15 wt.-%, no SLS, mAPI 450 mg/g
[20] = HPMC 2.5 wt.-%, no SLS, mAPI 25 mg/g
[21] = PVPVA 1 wt.-%, SLS 0.2 wt.-%, mAPI 25 mg/g
[22] = PVPVA 2.5 wt.-%, SLS 0.2 wt.-%, mAPI 25 mg/g
[23] = PVPVA 2.5 wt.-%, no SLS, mAPI 25 mg/g
[24] = PVPVA 5 wt.-%, SLS 0.2 wt.-%, mAPI 25 mg/g
[25] = PVPVA 10 wt.-%, SLS 0.2 wt.-%, mAPI 25 mg/g
[26] = HPMC 1 wt.-%, SLS 0.2 wt.-%, mAPI 25 mg/g
[27] = HPMC 1 wt.-%, no SLS, mAPI 25 mg/g
[28] = HPMC 2.5 wt.-%, SLS 0.2 wt.-%, mAPI 25 mg/g
[29] = HPMC 5 wt.-%, SLS 0.2 wt.-%, mAPI 100 mg/g
[30] = HPMC 5 wt.-%, SLS 0.2 wt.-%, mAPI 150 mg/g
[31] = HPMC 5 wt.-%, SLS 0.2 wt.-%, mAPI 200 mg/g
[32] = PVPVA 1 wt.-%, no SLS, mAPI 25 mg/g polymer solution
[33] = PVPVA 5 wt.-%, no SLS, mAPI 25 mg/g
[34] = PVPVA 10 wt.-%, no SLS, mAPI 25 mg/g
[35] = PVPVA 20 wt.-%, no SLS, mAPI 200 mg/g
[36] = PVPVA 25 wt.-%, SLS 0.2 wt.-%, mAPI 500 mg/g
[37] = PVPVA 25 wt.-%, no SLS, mAPI 250 mg/g
[38] = PVPVA 25 wt.-%, no SLS, mAPI 500 mg/g
[39] = PVPVA 45 wt.-%, SLS 0.2 wt.-%, mAPI 450 mg/g
[40] = PVPVA 45 wt.-%, no SLS, mAPI 450 mg/g
[41] = Poloxamer 407 15 wt.-%, SLS 0.2 wt.-%, mAPI 450 mg/g

For Cc1cc(Nc2ncc(Cl)c(Nc3ccccc3S(=O)(=O)C(C)C)n2)c(OC(C)C)cc1C1CCNCC1 [Cere, ceritinib], the “Stability of composition by SEM” value [1] was “good stability”, the “Grade (SEM, visual inspection)” value [2, 4] was 5 and the “Grade (SEM, visual inspection)” value [2, 5] was 5. The “Grade (SEM, visual inspection)” value [2, 6] was 5, the “Grade (SEM, visual inspection)” value [2, 7] was 5 and the “Grade (SEM, visual inspection)” value [2, 8] was 5. The “Grade (SEM, visual inspection)” value [2, 9] was 5, the “Grade (SEM, visual inspection)” value [2, 10] was 3 and the “Grade (SEM, visual inspection)” value [2, 11] was 3. The “Grade (SEM, visual inspection)” value [2, 12] was 3, the “Grade (SEM, visual inspection)” value [2, 13] was 5 and the “Grade (SEM, visual inspection)” value [2, 14] was 5. The “Grade (SEM, visual inspection)” value [2, 15] was 5, the “Grade (SEM, visual inspection)” value [2, 16] was 5 and the “Grade (SEM, visual inspection)” value [2, 17] was 5. For the same molecule, the “Grade (SEM, visual inspection)” value [2, 18] was 5, the “Grade (SEM, visual inspection)” value [2, 19] was 5 and the Polymorph [3, 20] was “amorphous”. For the same molecule, the Polymorph [3, 21] was “amorphous”, the Polymorph [3, 22] was “amorphous” and the Polymorph [3, 23] was “amorphous”. The Polymorph [3, 24] was “amorphous”, the Polymorph [3, 25] was “amorphous” and the Polymorph [3, 4] was “Form 1”. The Polymorph [3, 5] was “Form 1”, the Polymorph [3, 6] was “Form 1” and the Polymorph [3, 7] was “Form 1”. For the same molecule, the Polymorph [3, 8] was “Form 1”, the Polymorph [3, 9] was “Form 1” and the Polymorph [3, 10] was “Form 1”. The Polymorph [3, 11] was “Form 1”, the Polymorph [3, 12] was “Form 1” and the Polymorph [3, 13] was “Form 1”. The Polymorph [3, 14] was “Form 1”, the Polymorph [3, 15] was “Form 1” and the Polymorph [3, 16] was “Form 1”. The Polymorph [3, 17] was “Form 1”, the Polymorph [3, 18] was “Form 1” and the Polymorph [3, 19] was “Form 1”.
With CNC(=O)c1ccc(N2C(=S)N(c3cnc(C#N)c(C(F)(F)F)c3)C(=O)C23CCC3)cc1F [Apa, apalutamide] the “Grade (SEM, visual inspection)” value [2, 26] was 5, the “Grade (SEM, visual inspection)” value [2, 27] was 5 and the “Grade (SEM, visual inspection)” value [2, 28] was 5. For the same molecule, the “Grade (SEM, visual inspection)” value [2, 20] was 4, the “Grade (SEM, visual inspection)” value [2, 29] was 5 and the “Grade (SEM, visual inspection)” value [2, 30] was 5. The “Grade (SEM, visual inspection)” value [2, 31] was 5, the “Grade (SEM, visual inspection)” value [2, 21] was 4 and the “Grade (SEM, visual inspection)” value [2, 32] was 4. For the same molecule, the “Grade (SEM, visual inspection)” value [2, 22] was 4, the “Grade (SEM, visual inspection)” value [2, 23] was 4 and the “Grade (SEM, visual inspection)” value [2, 24] was 4. The “Grade (SEM, visual inspection)” value [2, 33] was 4, the “Grade (SEM, visual inspection)” value [2, 25] was 5 and the “Grade (SEM, visual inspection)” value [2, 34] was 4. The “Grade (SEM, visual inspection)” value [2, 35] was 5, the “Grade (SEM, visual inspection)” value [2, 36] was 5 and the “Grade (SEM, visual inspection)” value [2, 37] was 5. The “Grade (SEM, visual inspection)” value [2, 38] was 5, the “Grade (SEM, visual inspection)” value [2, 39] was 5 and the “Grade (SEM, visual inspection)” value [2, 40] was 5. For the same molecule, the “Grade (SEM, visual inspection)” value [2, 4] was 2, the “Grade (SEM, visual inspection)” value [2, 5] was 2 and the “Grade (SEM, visual inspection)” value [2, 6] was 2. For the same molecule, the “Grade (SEM, visual inspection)” value [2, 7] was 2, the “Grade (SEM, visual inspection)” value [2, 8] was 2 and the “Grade (SEM, visual inspection)” value [2, 9] was 2. The “Grade (SEM, visual inspection)” value [2, 15] was 1, the “Grade (SEM, visual inspection)” value [2, 16] was 1 and the “Grade (SEM, visual inspection)” value [2, 41] was 1. For the same molecule, the “Grade (SEM, visual inspection)” value [2, 17] was 1, the “Grade (SEM, visual inspection)” value [2, 18] was 1 and the “Grade (SEM, visual inspection)” value [2, 19] was 1. The Polymorph [3, 26] was “new”, the Polymorph [3, 27] was “new” and the Polymorph [3, 28] was “new”. For the same molecule, the Polymorph [3, 20] was “new”, the Polymorph [3, 29] was “new” and the Polymorph [3, 30] was “new”. The Polymorph [3, 31] was “new”, the Polymorph ([3]; HPMC 5 wt.-%, SLS 0.2 wt.-%, mAPI 250 mg/g) was “new” and the Polymorph ([3]; HPMC 5 wt.-%, SLS 0.2 wt.-%, mAPI 300 mg/g) was “new”. For the same molecule, the Polymorph ([3]; HPMC 5 wt.-%, no SLS, mAPI 100 mg/g) was “amorphous”, the Polymorph [3, 21] was “new” and the Polymorph [3, 32] was “new”. For the same molecule, the Polymorph [3, 22] was “new”, the Polymorph [3, 23] was “new” and the Polymorph [3, 24] was “new”. The Polymorph [3, 33] was “new”, the Polymorph [3, 25] was “new” and the Polymorph [3, 34] was “new”. The Polymorph ([3]; PVPVA 15 wt.-%, no SLS, mAPI 450 mg/g) was “amorphous”, the Polymorph ([3]; PVPVA 15 wt.-%, no SLS, mAPI 600 mg/g) was “amorphous” and the Polymorph [3, 35] was “new”. For the same molecule, the Polymorph ([3]; PVPVA 20 wt.-%, no SLS, mAPI 600 mg/g) was “amorphous”, the Polymorph [3, 36] was “new” and the Polymorph [3, 37] was “new”. For the same molecule, the Polymorph [3, 38] was “new”, the Polymorph [3, 39] was “new” and the Polymorph [3, 40] was “new”. For the same molecule, the Polymorph [3, 4] was “Form B”, the Polymorph [3, 5] was “Form B” and the Polymorph [3, 6] was “Form B”. The Polymorph [3, 7] was “Form B”, the Polymorph [3, 8] was “Form B” and the Polymorph [3, 9] was “Form B”. The Polymorph [3, 15] was “Form B”, the Polymorph [3, 16] was “Form B” and the Polymorph [3, 41] was “Form B”. The Polymorph [3, 17] was “Form B”, the Polymorph [3, 18] was “Form B” and the Polymorph [3, 19] was “Form B”.
